Laboratory results published in patent US11001563B2, “SSAO inhibitor” (SHANDONG DANHONG PHARMACEUTICAL CO., LTD., priority 2017, dated 2021).

Assays:
[1] = Distribution of compounds in liver and blood of CD-1 mice; assay type: in vivo; settings: single oral dose
Procedure: Experimental purpose: distribution of compounds in liver and blood of CD-1 mice was tested;
CD-1 Mice (male, 25-35 g, 6-9 weeks old, Shanghai Slack);
Experimental procedure: after oral administration, the drug was distributed in the liver and blood of rodents, candidate compounds in the experiment were formulated into a clear solution to be administered to mice in a single oral dose. The oral solvent was a certain proportion of an aqueous solution of hydroxypropyl P-cyclodextrin or a physiological saline solution. The concentration of the drug in the liver and blood was measured at 1 hour and 4 hours after administration.

CYP2C9 = CYP2C9 (Homo sapiens (Human), UniProt P11712); assay: Human liver microsomal CYP inhibition assay; assay type: in vitro ADME; settings: human liver microsomes, 5-in-1 probe substrate
Procedure: (§1) The purpose of the study was to evaluate the inhibition of the test sample on human liver microsomal cytochrome P450 isozymes (CYP1A2, CYP2C9, CYP2C19, CYP2D6, and CYP3A4) by using the CYP isozyme 5-in-1 probe substrate.
(§2) Mixed human liver microsomes (HLM) were purchased from Corning Inc. (Steuben, N.Y., USA) or XenoTech, LLC. (Lenexa, Kans., USA) or other suppliers, and stored at the temperature below −70° C. prior to use.
(§3) A series of diluted test sample working solution were added to an incubation system containing cofactors of human liver microsomes, a probe substrate and a circulation system, and the control without a test substance but containing a solvent was used as enzyme activity control (100%). The concentration of the metabolite produced by the probe sample in the sample was determined by liquid chromatography-tandem mass spectrometry (LC-MS/MS). Non-linear regression analysis was performed on the concentration of the average percent activity of the test sample by using SigmaPlot (V.11). The IC50 value was calculated by a three-parameter or four-parameter recursive logarithmic equation.

CYP1A2 = CYP1A2 (Homo sapiens (Human), UniProt P05177); assay: Human liver microsomal CYP inhibition assay; assay type: in vitro ADME; settings: human liver microsomes, 5-in-1 probe substrate
Procedure: as §1, §2, §3

CYP3A4 = CYP3A4 (Homo sapiens (Human), UniProt P08684); assay: Human liver microsomal CYP inhibition assay; assay type: in vitro ADME; settings: human liver microsomes, 5-in-1 probe substrate
Procedure: as §1, §2, §3

CYP2C19 = CYP2C19 (Homo sapiens (Human), UniProt P33261); assay: Human liver microsomal CYP inhibition assay; assay type: in vitro ADME; settings: human liver microsomes, 5-in-1 probe substrate
Procedure: as §1, §2, §3

CYP2D6 = CYP2D6 (Homo sapiens (Human), UniProt P10635); assay: Human liver microsomal CYP inhibition assay; assay type: in vitro ADME; settings: human liver microsomes, 5-in-1 probe substrate
Procedure: as §1, §2, §3

hERG potassium channel = hERG potassium channel (Homo sapiens (Human), UniProt Q12809); assay: Inhibition test of hERG potassium ion channel (automatic patch clamp, CHO-hERG cells); assay type: cell-based
Procedure: The effect of the to-be-tested compound on the potassium ion channel of hERG was detected by a fully automatic patch clamp method.
The cells stably expressing hERG potassium channel used in the experiment were obtained from CHO-hERE of Aviva Biosciences, and CHO-hERG was cultured in 5% CO2 at 37° C.
CHO-hERG cells prepared for the experiment were cultured for at least two days, and the cell density reached 75% or more. Prior to the start of the experiment, cells were digested with TrypLE and then resuspended in extracellular fluid to collect the cells.
The to-be-tested compound and the positive control Amitriptyline were dissolved in DMSO to a certain concentration of the stock solution, and then diluted according to different gradients, and finally added to the extracellular fluid in a certain ratio, and diluted to a concentration to be measured. Visual inspection was performed to see if there was any precipitation before the start of the experiment. Finally, the concentration of DMSO in the to-be-tested solution and the positive control Amitriptyline should not exceed 0.3%.
The clamping potential was kept at −80 mv, first a voltage stimulation of −50 mv was given for 80 ms to record the cell leakage current value, and then was depolarized to +20 mv to be maintained for 4800 ms, the channel of hERG was open, and then repolarized to −50 mv to be maintained 5000 ms, hERG tail current was led out and recorded, and finally, the voltage was returned to the clamping potential of −80 mv to be maintained for 3100 ms. The above voltage stimulation was repeated once every 15000 ms.
hERG QPatch^HTX experiment was performed at room temperature. A whole cell protocol, a voltage stimulation protocol and a compound detection protocol were established on the software of QPatch Assay Software 5.2 (Sophion Bioscience).
First, 30 repeated set voltage stimulations were performed, which was the baseline area for subsequent analysis, followed by the addition of 5 μl of extracellular fluid, repeated for three times. The concentration of each compound added in sequence was repeated three times in a volume of 5 μl. The cells were incubated for at least 5 min at each test concentration. During the entire recording process, the indicators needed to meet the data analysis acceptance criteria. If the standard was not met, the cells would not be included in the analysis scope, and the compounds would be retested. The above recording process was automatically operated by Qpatch analysis software. […]
In each complete current record, based on the percentage of peak current in the negative control, the percent inhibition of the concentration of each compound can be calculated. […]

VAP-1/SSAO [2] = target: T1, VAP-1/SSAO (Homo sapiens (Human), UniProt Q16853); assay: Human VAP-1 enzyme activity assay (Amplex Red Monoamine Oxidase kit); assay type: biochemical; settings: 10 nM VAP-1 enzyme, 30 min preincubation, benzylamine substrate; read-out: Human Recombinant VAP-1/SSAO Enzyme Inhibitory Activity IC50
Procedure: Human VAP-1 enzyme activity assay:
The inhibition of the sample on VAP-enzyme activity was measured by using an Amplex® Red Monoamine Oxidase kit (Invitrogen #A12214). 100 nL of the gradiently-diluted to-be-tested compound (solvent DMSO) was added to a 384-well plate. 25 μL of 10 nM VAP-1 enzyme solution was added and incubated for 30 minutes at room temperature. A substrate mixture of VAP-1 enzyme (200 μM Amplex Red, 1 U/mL HRP, 1 mM Benzylamine) was added and incubated for 60 minutes at room temperature. After the incubation, the fluorescent signal was read with a microplate reader Envision (excitation light wavelength 530-560 nm, emission light wavelength 590 nm). The fluorescence signal value after the background signal was removed was analyzed by Prism software, and the IC50 of the sample against the VAP-1 enzyme was calculated.

VAP-1/SSAO [3] = target: T1, VAP-1/SSAO; assay: VAP-1 cell activity assay (HUVEC or CHO cells transfected with VAP-1/pCDNA (3.1) plasmid, Amplex Red); assay type: cell-based; settings: HUVEC or CHO cells transfected with VAP-1 plasmid; read-out: VAP-1/SSAO Cellular Inhibitory Activity IC50
Procedure: The inhibition of the sample on VAP-1 cell activity was measured by using an Amplex® Red Monoamine Oxidase kit (Invitrogen #A12214).
The cultured HUVEC or CHO cells were plated into a 6-well plate at a density of 0.8 M/well, placed in a 37° C., 5% CO2 incubator for incubation for 24 hours, and then the cells was transferred with a Lipo2000 reagent and a VAP-1/pCDNA (3.1) plasmid, and liquid was changed for the cells after 5 hours (Lipo2000 was toxic to the cells); after 24 hours, the cells were digested and plated into 384-well plates with a density of 25 μl, 10000 cells/well, and liquid was replaced with medium without FBS for the cells after 6-7 hours, and the cell plates were incubated overnight at 37° C. in a 5% CO2 incubator.
1) Dilution of the compound: serial dilution in 4× gradient was carried out with 100% DMSO, 10 points were diluted, the starting concentration of the to-be-tested compound was 0.5 mM (final concentration was 1 μM); 100 nl of compound solution was transferred to a 384-well cell assay plate with ECHO. Negative control wells: 100 nl of DMSO; background control wells: 100 nl DMSO+25 μL medium.
2) The reaction was carried out in the dark at room temperature for 30 min.
3) Preparation of Amplex Red reagent+HRP+benzylamine substrate working solution: Amplex Red reagent+HRP+benzylamine substrate working solution (200 μM Amplex Red reagent+1 U/mL HRP+1 mM benzylamine): 45 μl of 20 mM Amplex Red reagent mother solution, 22.5 μl of 200 U/ml horseradish peroxidase (HRP) mother solution and 45 ul of 100 mM benzylamine were tanken and added to 4.3875 ml of 1× reaction buffer.
4) After 30 min, 25 μl of the substrate working solution was added to a 384-well plate, and a final concentration was 100 μM Amplex Red reagent+0.5 U/mL HRP+0.5 mM benzylamine, respectively.
5) The reaction was carried out in the dark at room temperature for 60 minutes, and the fluorescence value was measured by Envision: the excitation wave was 535 nm, and the emission wave was 590 nm.
6) Inhibition rate calculation formula: % inhibition rate=(1−(test hole minus background−positive control well minus background)/(negative control well minus background-positive control well minus background))*100
7) The data were analyzed with Prism. The IC50 of the sample against VAP-1 cells was calculated.

T1 sequence (Q16853 whole entry): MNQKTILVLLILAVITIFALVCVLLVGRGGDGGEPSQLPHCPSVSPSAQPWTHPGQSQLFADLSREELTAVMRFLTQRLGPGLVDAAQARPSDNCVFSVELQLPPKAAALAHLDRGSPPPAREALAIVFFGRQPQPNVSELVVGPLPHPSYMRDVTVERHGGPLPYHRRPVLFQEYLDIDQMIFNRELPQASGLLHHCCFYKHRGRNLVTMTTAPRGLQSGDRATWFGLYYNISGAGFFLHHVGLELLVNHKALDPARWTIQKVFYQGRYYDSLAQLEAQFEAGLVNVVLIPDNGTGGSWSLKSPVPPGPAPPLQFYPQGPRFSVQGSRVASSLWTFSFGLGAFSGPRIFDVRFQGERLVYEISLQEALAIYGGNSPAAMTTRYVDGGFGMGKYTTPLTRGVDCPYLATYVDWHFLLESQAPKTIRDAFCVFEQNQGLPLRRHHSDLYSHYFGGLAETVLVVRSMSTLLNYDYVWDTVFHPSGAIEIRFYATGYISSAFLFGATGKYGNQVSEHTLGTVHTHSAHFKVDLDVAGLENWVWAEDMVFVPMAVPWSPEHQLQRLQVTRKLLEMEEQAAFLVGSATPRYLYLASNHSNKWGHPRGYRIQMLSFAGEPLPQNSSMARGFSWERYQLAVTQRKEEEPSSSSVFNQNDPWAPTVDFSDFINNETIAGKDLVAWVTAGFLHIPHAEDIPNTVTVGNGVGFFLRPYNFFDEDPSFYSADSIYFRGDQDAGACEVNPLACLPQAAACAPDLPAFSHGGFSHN
Chain of hERG potassium channel (Q12809 whole entry): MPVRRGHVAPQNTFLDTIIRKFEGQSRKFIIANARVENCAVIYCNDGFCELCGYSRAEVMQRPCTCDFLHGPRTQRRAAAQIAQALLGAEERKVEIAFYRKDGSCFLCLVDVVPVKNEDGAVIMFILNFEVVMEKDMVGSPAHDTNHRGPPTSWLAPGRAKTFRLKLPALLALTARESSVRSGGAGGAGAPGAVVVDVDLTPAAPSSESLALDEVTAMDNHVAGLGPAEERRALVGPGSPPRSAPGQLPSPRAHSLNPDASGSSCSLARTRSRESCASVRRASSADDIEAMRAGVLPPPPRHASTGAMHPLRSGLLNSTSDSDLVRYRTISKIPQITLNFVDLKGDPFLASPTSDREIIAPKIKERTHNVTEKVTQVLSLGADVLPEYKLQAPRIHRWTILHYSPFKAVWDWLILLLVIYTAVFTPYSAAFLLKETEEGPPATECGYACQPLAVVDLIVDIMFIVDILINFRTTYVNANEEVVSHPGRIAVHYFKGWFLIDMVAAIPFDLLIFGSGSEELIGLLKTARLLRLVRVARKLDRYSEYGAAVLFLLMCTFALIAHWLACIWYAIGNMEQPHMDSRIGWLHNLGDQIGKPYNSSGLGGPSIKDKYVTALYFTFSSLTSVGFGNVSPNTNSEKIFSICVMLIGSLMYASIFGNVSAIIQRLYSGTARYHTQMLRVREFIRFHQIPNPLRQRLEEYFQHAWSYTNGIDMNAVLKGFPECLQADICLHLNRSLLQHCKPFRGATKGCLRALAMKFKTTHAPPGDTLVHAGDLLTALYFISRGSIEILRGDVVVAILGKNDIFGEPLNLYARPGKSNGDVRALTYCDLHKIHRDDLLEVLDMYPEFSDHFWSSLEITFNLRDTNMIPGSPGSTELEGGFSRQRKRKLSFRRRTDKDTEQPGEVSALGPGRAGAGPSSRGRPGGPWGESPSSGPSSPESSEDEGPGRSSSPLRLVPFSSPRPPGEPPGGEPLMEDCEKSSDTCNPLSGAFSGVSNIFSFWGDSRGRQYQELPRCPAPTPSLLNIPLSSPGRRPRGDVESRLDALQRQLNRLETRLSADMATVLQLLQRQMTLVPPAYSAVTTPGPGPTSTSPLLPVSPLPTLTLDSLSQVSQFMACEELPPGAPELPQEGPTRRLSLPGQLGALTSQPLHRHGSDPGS
Chain of CYP1A2 (P05177 whole entry): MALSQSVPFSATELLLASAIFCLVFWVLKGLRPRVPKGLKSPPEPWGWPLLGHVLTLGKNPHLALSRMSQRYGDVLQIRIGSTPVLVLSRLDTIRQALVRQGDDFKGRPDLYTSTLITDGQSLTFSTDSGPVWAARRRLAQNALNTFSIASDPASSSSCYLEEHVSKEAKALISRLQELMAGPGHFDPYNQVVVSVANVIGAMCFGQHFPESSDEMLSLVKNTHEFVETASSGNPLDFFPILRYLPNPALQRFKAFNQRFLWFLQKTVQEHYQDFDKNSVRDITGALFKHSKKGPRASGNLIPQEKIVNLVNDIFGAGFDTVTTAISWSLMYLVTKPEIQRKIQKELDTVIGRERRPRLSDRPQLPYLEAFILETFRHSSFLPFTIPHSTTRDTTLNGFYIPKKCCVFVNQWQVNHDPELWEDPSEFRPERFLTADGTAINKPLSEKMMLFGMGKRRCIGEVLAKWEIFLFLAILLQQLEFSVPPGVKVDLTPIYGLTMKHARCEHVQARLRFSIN
Chain of CYP2C19 (P33261 whole entry): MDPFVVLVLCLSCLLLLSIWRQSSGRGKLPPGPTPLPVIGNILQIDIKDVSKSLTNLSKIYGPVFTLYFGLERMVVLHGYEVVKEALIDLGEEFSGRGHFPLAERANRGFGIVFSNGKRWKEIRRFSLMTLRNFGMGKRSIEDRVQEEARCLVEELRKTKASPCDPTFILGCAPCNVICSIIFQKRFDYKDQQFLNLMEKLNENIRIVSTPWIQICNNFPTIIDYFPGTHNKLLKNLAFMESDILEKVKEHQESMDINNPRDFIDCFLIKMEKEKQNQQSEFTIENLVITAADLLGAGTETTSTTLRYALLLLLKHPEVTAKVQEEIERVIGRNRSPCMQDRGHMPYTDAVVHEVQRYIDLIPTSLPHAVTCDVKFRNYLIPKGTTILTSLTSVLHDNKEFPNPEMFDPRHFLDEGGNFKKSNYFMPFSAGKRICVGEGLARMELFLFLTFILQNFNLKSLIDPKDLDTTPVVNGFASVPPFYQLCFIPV
Chain of CYP2D6 (P10635 whole entry): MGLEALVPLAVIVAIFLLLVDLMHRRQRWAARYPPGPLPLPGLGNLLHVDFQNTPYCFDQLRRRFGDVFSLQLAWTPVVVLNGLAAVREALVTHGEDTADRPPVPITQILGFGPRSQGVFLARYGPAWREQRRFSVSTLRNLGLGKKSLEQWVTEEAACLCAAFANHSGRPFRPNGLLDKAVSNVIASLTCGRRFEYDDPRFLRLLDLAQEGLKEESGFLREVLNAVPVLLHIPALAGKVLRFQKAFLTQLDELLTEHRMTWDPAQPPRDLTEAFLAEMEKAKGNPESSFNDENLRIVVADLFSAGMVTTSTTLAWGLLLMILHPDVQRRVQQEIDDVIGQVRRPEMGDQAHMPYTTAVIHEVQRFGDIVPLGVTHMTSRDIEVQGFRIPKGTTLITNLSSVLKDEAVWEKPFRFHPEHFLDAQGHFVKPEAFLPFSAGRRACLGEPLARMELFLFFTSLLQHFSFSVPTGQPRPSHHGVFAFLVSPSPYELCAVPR
Chain of CYP3A4 (P08684 whole entry): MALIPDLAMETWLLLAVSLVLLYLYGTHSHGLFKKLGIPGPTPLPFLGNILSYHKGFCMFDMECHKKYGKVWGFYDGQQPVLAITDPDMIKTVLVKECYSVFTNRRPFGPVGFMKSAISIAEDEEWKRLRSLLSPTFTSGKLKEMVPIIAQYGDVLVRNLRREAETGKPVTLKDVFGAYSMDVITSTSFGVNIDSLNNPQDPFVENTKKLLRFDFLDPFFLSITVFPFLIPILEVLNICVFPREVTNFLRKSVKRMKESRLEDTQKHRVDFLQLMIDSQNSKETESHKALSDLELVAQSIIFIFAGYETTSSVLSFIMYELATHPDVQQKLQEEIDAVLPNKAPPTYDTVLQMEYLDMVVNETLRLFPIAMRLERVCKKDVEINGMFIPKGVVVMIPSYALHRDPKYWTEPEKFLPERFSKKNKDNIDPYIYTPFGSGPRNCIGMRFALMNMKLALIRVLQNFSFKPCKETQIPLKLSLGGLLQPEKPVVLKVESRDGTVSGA
Chain of CYP2C9 (P11712 whole entry): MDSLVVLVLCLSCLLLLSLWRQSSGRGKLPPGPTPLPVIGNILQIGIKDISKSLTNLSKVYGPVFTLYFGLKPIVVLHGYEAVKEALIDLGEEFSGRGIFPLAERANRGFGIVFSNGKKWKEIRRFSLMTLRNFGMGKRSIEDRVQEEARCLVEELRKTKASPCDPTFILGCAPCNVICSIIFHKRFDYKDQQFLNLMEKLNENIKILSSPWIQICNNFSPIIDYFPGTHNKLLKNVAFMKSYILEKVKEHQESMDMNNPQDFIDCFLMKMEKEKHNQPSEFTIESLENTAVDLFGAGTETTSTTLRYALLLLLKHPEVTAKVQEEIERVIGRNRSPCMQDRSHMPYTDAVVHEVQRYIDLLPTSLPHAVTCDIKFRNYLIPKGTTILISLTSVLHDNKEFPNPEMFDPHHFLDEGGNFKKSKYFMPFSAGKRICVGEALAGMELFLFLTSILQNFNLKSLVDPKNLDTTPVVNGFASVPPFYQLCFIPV

SMILES | Liver Concentration ([1]; @1.0 hour) | Liver Concentration/Plasma Concentration ratio ([1]; @1.0 hour) | Plasma Concentration ([1]; @1.0 hour) | Liver Concentration ([1]; @4.0 hour) | Liver Concentration/Plasma Concentration ratio ([1]; @4.0 hour) | Plasma Concentration ([1]; @4.0 hour) | IC50 (CYP2C9) [µM] | IC50 (CYP1A2) [µM] | IC50 (CYP3A4) [µM] | IC50 (CYP2C19) [µM] | IC50 (CYP2D6) [µM] | IC50 (hERG potassium channel; QPatch whole cell patch clamp, CHO-hERG, 0.24-30.00 μM) [µM] | Inhibition of hERG potassium current (in words) (hERG potassium channel; conclusion statement) | IC50 (VAP-1/SSAO [2]) [µM] | IC50 (VAP-1/SSAO [3]) [µM]
CC(C)(C)NC(=O)c1ccc(OC/C(=C/F)CN)cc1.Cl [PXS-4728A, reference compound] | 13140 | 10 | 1470 | 2120 | 14 | 154 | 32 | 9 | > 50 | 76 | 38 |  |  |  | 
Cc1noc(-c2ccc(OC/C(=C/F)CN)cc2)n1.Cl [WX008] |  |  |  |  |  |  |  |  |  |  |  | > 30 | weak inhibition | 0.0004 | 0.0003
Cn1nc(C2(F)CC2)nc1-c1ccc(OC/C(=C/F)CN)cc1 [WX117] |  |  |  |  |  |  |  |  |  |  |  |  |  | 0.0007 | 0.0009
